Source: patent US20230090742A1, “AMINOPYRIMIDINYLAMINOBENZONITRILE DERIVATIVES AS NEK2 INHIBITORS” (Sumitomo Pharma Oncology, Inc., priority 2020, published 2023)

Assays:
[1] = biological target: T1, NEK2 kinase (Accession No. NP-002488) (Homo sapiens, UniProt P51955); test: HotSpot Kinase Assay, NEK2; type: biochemical; settings: HotSpot Kinase Assay; read-out: NEK2 IC50
T1 construct: purchased ThermoFisher Scientific (Invitrogen)
T1 sequence (P51955 1-445): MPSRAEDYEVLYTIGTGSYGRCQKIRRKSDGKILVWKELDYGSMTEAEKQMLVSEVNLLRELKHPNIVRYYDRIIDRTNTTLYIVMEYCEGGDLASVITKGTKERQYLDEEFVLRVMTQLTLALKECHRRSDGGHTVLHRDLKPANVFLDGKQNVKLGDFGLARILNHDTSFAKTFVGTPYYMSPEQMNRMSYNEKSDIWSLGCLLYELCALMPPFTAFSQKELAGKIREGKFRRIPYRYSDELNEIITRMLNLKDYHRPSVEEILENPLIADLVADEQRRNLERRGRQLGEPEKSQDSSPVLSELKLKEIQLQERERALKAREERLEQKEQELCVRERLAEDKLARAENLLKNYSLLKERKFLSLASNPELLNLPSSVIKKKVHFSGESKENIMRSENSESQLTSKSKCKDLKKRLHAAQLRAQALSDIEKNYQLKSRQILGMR
Method: In this example, the compounds described herein were tested for their inhibitory activity against NEK2 and/or Aurora A using the HotSpot™ Kinase Assay (Reaction Biology Corp.). The assay was performed according to the manufacturer's protocol, as detailed below. The NEK2 kinase (Accession No. NP-002488) and Aurora A kinase (Accession No. NP-940839) for use in these assays was sourced from ThermoFisher Scientific (Invitrogen).
The base Reaction Buffer used in this experiment contained the following: 20 mM Hepes (pH 7.5), 10 mM MgCl2, 1 mM EGTA, 0.02% Brij™-35, 0.02 mg/ml BSA, 0.1 mM Na3VO4, 2 mM DTT, and 1% DMSO. The required cofactors were added individually to each kinase reaction.
Testing compounds were dissolved in 100% DMSO to a specific concentration. The serial dilution was conducted by Integra Viaflo Assist in DMSO.
The substrate was prepared in freshly prepared Reaction Buffer. The required cofactors were delivered to the substrate solution described above. NEK2 kinase or Aurora A kinase was delivered to the substrate solution and gently mixed. Next, the compounds in 100% DMSO were transferred to the kinase reaction mixture by Acoustic technology (Echo550; nanoliter range) and incubated for 20 min at room temperature. ^33P-ATP (Specific activity 10 μCi/μl) was delivered into the reaction mixture to initiate the reaction. The reaction was incubated for 2 hours at room temperature. Radioactivity was then detected by the filter-binding method. Kinase activity data were expressed as the percent remaining kinase activity in test samples compared to vehicle (dimethyl sulfoxide) reactions. IC50 values and curve fits were obtained using Prism (GraphPad Software).

[2] = biological target: T2, NEK2 (Homo sapiens, UniProt P51955); test: NanoBRET Target Engagement Intracellular Kinase Assay for NEK2 in transfected HEK293 cells; type: cell-based; settings: NEK2 target engagement, read-out: NanoBRET IC50
T2 construct: expressed in transfected cells; host or cells: HEK293
T2 sequence (P51955 1-445): T1 sequence (P51955 1-445)
Method: In this example, the compounds described herein were tested for their inhibitory activity against NEK2 using a model of in vivo activity by the NanoBRET™ Target Engagement Intracellular Kinase Assay (Reaction Biology Corp.). The assay was performed according to the manufacturer's protocol, as detailed below.
HEK293 cells were cultivated (70-80% confluence) prior to the assay. The sample was trypsinized and HEK293 cells were collected.
To prepare lipid: DNA complexes, a 10 μg/ml solution of DNA in Opti-MEM without serum was prepared that consisted of the following ratios of carrier DNA and DNA encoding NanoLuc® fusion: 9.0 μg/ml of Transfection Carrier DNA, 1.0 μg/ml of NanoLuc fusion vector DNA and 1 ml of Opti-MEM without phenol red. The solution was mixed thoroughly. 30 μl of FuGENE HD Transfection Reagent was added into each milliliter of DNA mixture to form lipid: DNA complex. The sample was mixed by inversion 10 times and then incubated at ambient temperature for 20 minutes to allow complexes to form. In a sterile, conical tube, 1 part of lipid:DNA complex was mixed with 20 parts of HEK293 cells in suspension. The resulting sample was mixed gently by inversion 5 times. The cell and lipid: DNA complex was dispensed into a sterile tissue culture dish and incubated for 22-24 hours.
Each test compound is delivered from the compound source plate to the wells of 384-well white NBS plate by Echo 550.
Step 3. Preparation of Cells with NanoBRET™ Tracer K5 Reagent:
The medium was removed from the dish with the transfected HEK293 cells via aspiration, trypsinized and cells were allowed to dissociate from the dish. Trypsin was neutralized using medium containing serum and centrifuged at 200×g for 5 minutes to pellet the cells. The cell density was adjusted to 2×10^5 cells/ml in Opti-MEM without phenol red.
The Complete 20× NanoBRET™ Tracer K5 Reagent with Tracer Dilution Buffer was prepared according to the manufacturer's instructions. One part of Complete 20× NanoBRET™ Tracer Reagent was added to 20 parts of cells in the tube. The sample was mixed gently by inversion 10 times. Next, the cell suspension was dispensed into white, 384-well NBS plates with a final tracer K5 concentration of 2 μM. The plate was incubated at 37° C., 5% CO2 for 1 hour. A separate set of samples without tracer were prepared for background correction steps.
The plate was removed from the incubator and equilibrated to room temperature for 15 minutes. The 3× Complete Substrate plus Inhibitor Solution in Assay Medium (Opti-MEMR I Reduced Serum Medium, no phenol red) was prepared just before measuring BRET. The 3× Complete Substrate plus Inhibitor Solution was added to each well of the 384-well plate and incubated for 2-3 minutes at room temperature. The donor emission wavelength (460 nm) and acceptor emission wavelength (600 nm) were measured using the Envision 2104 plate reader.
To generate raw BRET ratio values, the acceptor emission value (600 nm) was divided by the donor emission value (460 nm) for each sample. To correct for background, the BRET ratio in the absence of tracer (average of no-tracer control samples) was subtracted from the BRET ratio of each sample.
BRET Ratio=[(Acceptor sample÷Donor sample)−(Acceptor no-tracer control÷Donor no-tracer control)]

| SMILES | IC50 [1] | IC50 [2] |
| --- | --- | --- |
| N#Cc1c(Nc2nc(Nc3ccc(C(=O)N4CCNCC4)cc3)ncc2Cl)cccc1OCc1ccccc1F [Compound 6, 2-((5-chloro-2-((4-(piperazine-1-carbonyl)phenyl)amino)pyrimidin-4-yl)amino)-6-((2-fluorobenzyl)oxy)benzonitrile] | > 15 nM | > 150 nM |
| COc1ccccc1COc1cccc(Nc2nc(Nc3ccc(N4CCNCC4)cc3)ncc2Cl)c1C#N [Compound 11, 2-((5-chloro-2-((4-(piperazin-1-yl)phenyl)amino)pyrimidin-4-yl)amino)-6-((2-methoxybenzyl)oxy)benzonitrile] | > 15 nM | > 150 nM |
| N#Cc1c(Nc2nc(Nc3ccc(N4CCNCC4)nc3)ncc2Cl)cccc1OCc1ccccc1F [Compound 8, 2-((5-chloro-2-((6-(piperazin-1-yl)73yridine-3-yl)amino)pyrimidin-4-yl)amino)-6-((2-fluorobenzyl)oxy)benzonitrile] | 5 to 15 nM | > 150 nM |
| C[C@@H](Oc1cccc(Nc2nc(Nc3ccc(N4CCN(C)CC4)cc3)ncc2Cl)c1C#N)c1ccccc1F [Compound 4, (R)-2-((5-chloro-2-((4-(4-methylpiperazin-1-yl)phenyl)amino)pyrimidin-4-yl)amino)-6-(1-(2-fluorophenyl)ethoxy)benzonitrile] | > 15 nM | > 150 nM |
| N#Cc1c(Nc2nc(Nc3ccc(N4CCNCC4)cc3)ncc2Cl)cccc1OCc1ccc(F)cc1 [Compound 13, 2-((5-chloro-2-((4-(piperazin-1-yl)phenyl)amino)pyrimidin-4-yl)amino)-6-((4-fluorobenzyl)oxy)benzonitrile] | > 15 nM | > 150 nM |
| N#Cc1c(Nc2nc(Nc3ccc(N4CCNCC4)cc3)ncc2Cl)cccc1OCc1cccc(F)c1 [Compound 14, 2-((5-chloro-2-((4-(piperazin-1-yl)phenyl)amino)pyrimidin-4-yl)amino)-6-((3-fluorobenzyl)oxy)benzonitrile] | > 15 nM | > 150 nM |
| N#Cc1c(Nc2nc(Nc3ccc(CN4CCNCC4)cc3)ncc2Cl)cccc1OCc1ccccc1F [Compound 15, 2-((5-chloro-2-((4-(piperazin-1-ylmethyl)phenyl)amino)pyrimidin-4-yl)amino)-6-((2-fluorobenzyl)oxy)benzonitrile] | 5 to 15 nM | > 150 nM |
| N#Cc1c(Nc2nc(Nc3ccc(CN4CCOCC4)cc3)ncc2Cl)cccc1OCc1ccccc1F [Compound 1, 2-((5-chloro-2-((4-(morpholinomethyl)phenyl)amino)pyrimidin-4-yl)amino)-6-((2-fluorobenzyl)oxy)benzonitrile] | > 15 nM | ≤ 50 nM |
| N#Cc1c(Nc2nc(Nc3ccc(N4CCNCC4)cc3)ncc2Cl)cccc1OCc1c(F)cccc1F [Compound 19, 2-((5-chloro-2-((4-(piperazin-1-yl)phenyl)amino)pyrimidin-4-yl)amino)-6-((2,6-difluorobenzyl)oxy)benzonitrile] | 5 to 15 nM | ≤ 50 nM |

The remaining lines, values ahead:

| IC50 [1] | IC50 [2] | SMILES |
| --- | --- | --- |
| ≤ 5 nM | ≤ 50 nM | C[C@H](Oc1cccc(Nc2nc(Nc3ccc(N4CCN(C)CC4)cc3)ncc2Cl)c1C#N)c1ccccc1F [Compound 3, (S)-2-((5-chloro-2-((4-(4-methylpiperazin-1-yl)phenyl)amino)pyrimidin-4-yl)amino)-6-(1-(2-fluorophenyl)ethoxy)benzonitrile] |
| 5 to 15 nM | > 150 nM | N#Cc1c(Nc2nc(Nc3cnn(C4CCNCC4)c3)ncc2Cl)cccc1OCc1ccccc1F [Compound 31, 2-((5-chloro-2-((1-(piperidin-4-yl)-1H-pyrazol-4-yl)amino)pyrimidin-4-yl)amino)-6-((2-fluorobenzyl)oxy)benzonitrile] |
| ≤ 5 nM | ≤ 50 nM | COc1cc(Nc2ncc(Cl)c(Nc3cccc(OCc4ccccc4F)c3C#N)n2)ccc1N1CCNCC1 [Compound 9, 2-((5-chloro-2-((3-methoxy-4-(piperazin-1-yl)phenyl)amino)pyrimidin-4-yl)amino)-6-((2-fluorobenzyl)oxy)benzonitrile] |
| ≤ 5 nM | > 150 nM | COc1cc(N2CCNCC2)ccc1Nc1ncc(Cl)c(Nc2cccc(OCc3ccccc3F)c2C#N)n1 [Compound 7, 2-((5-chloro-2-((2-methoxy-4-(piperazin-1-yl)phenyl)amino)pyrimidin-4-yl)amino)-6-((2-fluorobenzyl)oxy)benzonitrile] |
| ≤ 5 nM | 50 to 150 nM | N#Cc1c(Nc2nc(Nc3ccc(C4CCNCC4)cc3)ncc2Cl)cccc1OCc1ccccc1F [Compound 27, 2-((5-chloro-2-((4-(piperidin-4-yl)phenyl)amino)pyrimidin-4-yl)amino)-6-((2-fluorobenzyl)oxy)benzonitrile] |
| ≤ 5 nM | 50 to 150 nM | CN1CCN(c2ccc(Nc3ncc(Cl)c(Nc4cccc(OCc5ccccc5F)c4C#N)n3)cc2)CC1 [Compound 18, 2-((5-chloro-2-((4-(4-methylpiperazin-1-yl)phenyl)amino)pyrimidin-4-yl)amino)-6-((2-fluorobenzyl)oxy)benzonitrile] |
| ≤ 5 nM | 50 to 150 nM | N#Cc1c(Nc2nc(Nc3ccc(N4CCN(CCO)CC4)cc3)ncc2Cl)cccc1OCc1ccccc1F [Compound 17, 2-((5-chloro-2-((4-(4-(2-hydroxyethyl)piperazin-1-yl)phenyl)amino)pyrimidin-4-yl)amino)-6-((2-fluorobenzyl)oxy)benzonitrile] |
